Data published in ChEMBL document CHEMBL4014340, “Identification of a Potent, Selective, and Efficacious Phosphatidylinositol 3-Kinase δ (PI3Kδ) Inhibitor for the Treatment of Immunological Disorders” (J Med Chem, 2017).
Blank lines part the entries; values can stand above or below the compound they belong to.

Experiments:
[1] = Metabolic stability in human liver microsomes assessed as parent compound remaining at 0.5 uM preincubated for 6 mins followed by NADPH addition measured after 10 mins by LC-MS/MS analysis; type: ADME, microsome; settings: read-out: Stability
[2] = Metabolic stability in rat liver microsomes assessed as parent compound remaining at 0.5 uM preincubated for 6 mins followed by NADPH addition measured after 10 mins by LC-MS/MS analysis; type: ADME, microsome; settings: read-out: Stability
[3] = Metabolic stability in mouse liver microsomes assessed as parent compound remaining at 0.5 uM preincubated for 6 mins followed by NADPH addition measured after 10 mins by LC-MS/MS analysis; type: ADME, microsome; settings: read-out: Stability
[4] = Half life in human liver microsomes aat 0.5 uM preincubated for 6 mins followed by NADPH addition measured after 10 mins by LC-MS/MS analysis; type: ADME, microsome
[5] = Half life in rat liver microsomes aat 0.5 uM preincubated for 6 mins followed by NADPH addition measured after 10 mins by LC-MS/MS analysis; type: ADME, microsome
[6] = Half life in mouse liver microsomes aat 0.5 uM preincubated for 6 mins followed by NADPH addition measured after 10 mins by LC-MS/MS analysis; type: ADME, microsome
[7] = AUC (0 to 24 hrs) in Balb/c mouse at 30 mg/kg, po; type: ADME, organism-based; set-up: dose 30 mg/kg, time < 24 hr, route oral; settings: in vivo
[8] = AUC (0 to 24 hrs) in Balb/c mouse at 100 mg/kg, po; type: ADME, organism-based; set-up: dose 100 mg/kg, time < 24 hr, route oral; settings: in vivo
[9] = Cmax in Balb/c mouse at 10 mg/kg, po; type: ADME, organism-based; set-up: dose 10 mg/kg, route oral; settings: in vivo
[10] = AUC (0 to 24 hrs) in Balb/c mouse at 10 mg/kg, po; type: ADME, organism-based; set-up: time < 24 hr, dose 10 mg/kg, route oral; settings: in vivo
[11] = Cmax in mouse at 6 mg/kg, po; type: ADME, organism-based; set-up: dose 6 mg/kg, route oral; settings: in vivo
[12] = Cmax in rat at 5 mg/kg, po; type: ADME, organism-based; set-up: dose 5 mg/kg, route oral; settings: in vivo
[13] = Cmax in dog at 2 mg/kg, po; type: ADME, organism-based, Canis lupus familiaris; set-up: dose 2 mg/kg, route oral; settings: in vivo
[14] = AUC in mouse at 6 mg/kg, po; type: ADME, organism-based; settings: in vivo
[15] = Clearance in monkey at 1 mg/kg, iv; type: ADME, organism-based, Macaca mulatta; settings: rhesus monkey, in vivo
[16] = AUC in rat at 5 mg/kg, po; type: ADME, organism-based; settings: in vivo
[17] = Clearance in mouse at 3 mg/kg, iv; type: ADME, organism-based; settings: in vivo
[18] = Clearance in rat at 2 mg/kg, iv; type: ADME, organism-based; settings: in vivo
[19] = Volume of distribution at steady state in mouse at 3 mg/kg, iv; type: ADME, organism-based; settings: in vivo, read-out: Vdss
[20] = Volume of distribution at steady state in rat at 2 mg/kg, iv; type: ADME, organism-based; settings: in vivo, read-out: Vdss
[21] = Volume of distribution at steady state in dog at 1 mg/kg, iv; type: ADME, organism-based, Canis lupus familiaris; settings: in vivo, read-out: Vdss
[22] = Volume of distribution at steady state in monkey at 1 mg/kg, iv; type: ADME, organism-based, Macaca mulatta; settings: rhesus monkey, in vivo, read-out: Vdss
[23] = Half life in mouse at 3 mg/kg, iv; type: ADME, organism-based; settings: in vivo
[24] = Half life in rat at 2 mg/kg, iv; type: ADME, organism-based; settings: in vivo
[25] = Half life in dog at 1 mg/kg, iv; type: ADME, organism-based, Canis lupus familiaris; settings: in vivo
[26] = Half life in monkey at 1 mg/kg, iv; type: ADME, organism-based, Macaca mulatta; settings: rhesus monkey, in vivo
[27] = Oral bioavailability in mouse at 6 mg/kg; type: ADME, organism-based; settings: in vivo
[28] = Oral bioavailability in rat at 5 mg/kg; type: ADME, organism-based; settings: in vivo
Canis familiaris = experiment: Oral bioavailability in dog at 2 mg/kg; type: ADME, organism-based, Canis lupus familiaris; settings: in vivo
Plasma [29] = experiment: Drug uptake in New Zealand White rabbit plasma at 3 mg/kg, iv administered as 10 mins infusion measured up to 30 mins post dose; type: ADME, organism-based, Oryctolagus cuniculus; settings: in vivo
Plasma [30] = experiment: Drug uptake in New Zealand White rabbit plasma at 10 mg/kg, iv administered as 10 mins infusion measured up to 30 mins post dose; type: ADME, organism-based, Oryctolagus cuniculus; settings: in vivo
Plasma [31] = experiment: Drug uptake in New Zealand White rabbit plasma at 20 mg/kg, iv administered as 10 mins infusion measured up to 30 mins post dose; type: ADME, organism-based, Oryctolagus cuniculus; settings: in vivo
Plasma [32] = experiment: Free plasma concentration in New Zealand White rabbit at 3 mg/kg, iv administered as 10 mins infusion measured up to 30 mins post dose; type: ADME, organism-based, Oryctolagus cuniculus; settings: in vivo
Plasma [33] = experiment: Free plasma concentration in New Zealand White rabbit at 10 mg/kg, iv administered as 10 mins infusion measured up to 30 mins post dose; type: ADME, organism-based, Oryctolagus cuniculus; settings: in vivo
Plasma [34] = experiment: Free plasma concentration in New Zealand White rabbit at 20 mg/kg, iv administered as 10 mins infusion measured up to 30 mins post dose; type: ADME, organism-based, Oryctolagus cuniculus; settings: in vivo
Oryctolagus cuniculus [35] = experiment: Effect on QTc time interval in New Zealand White rabbit at 3 mg/kg, iv administered as 10 mins infusion measured for 2 mins by ECG analysis; type: ADME, organism-based; settings: in vivo
Oryctolagus cuniculus [36] = experiment: Effect on QTc time interval in New Zealand White rabbit at 10 mg/kg, iv administered as 10 mins infusion measured for 2 mins by ECG analysis; type: ADME, organism-based; settings: in vivo
Oryctolagus cuniculus [37] = experiment: Effect on QTc time interval in New Zealand White rabbit at 20 mg/kg, iv administered as 10 mins infusion measured for 2 mins by ECG analysis; type: ADME, organism-based; settings: in vivo

remaining at 10 min, 0.5 µM [1]: 85%
remaining at 10 min, 0.5 µM [2]: 52%
remaining at 10 min, 0.5 µM [3]: 67%
SMILES: CC(=O)N1CCN(c2cc(-c3cc(Cl)c4c(N)ncnn34)ccc2Cl)C(=O)C1(C)C

remaining at 10 min, 0.5 µM [1]: 90%
remaining at 10 min, 0.5 µM [2]: 89%
remaining at 10 min, 0.5 µM [3]: 89%
SMILES: CC(=O)N1CCN(c2cc(-c3cc(Cl)c4c(N)ncnn34)ccc2C#N)C(=O)C1(C)C

remaining at 10 min, 0.5 µM [1]: 94%
remaining at 10 min, 0.5 µM [2]: 91%
remaining at 10 min, 0.5 µM [3]: 94%
SMILES: COc1ccc(-c2cc(Cl)c3c(N)ncnn23)cc1N1CCN(C(C)=O)C(C)(C)C1=O

remaining at 10 min, 0.5 µM [1]: 82%
remaining at 10 min, 0.5 µM [2]: 60%
remaining at 10 min, 0.5 µM [3]: 66%
SMILES: CC(=O)N1CCN(c2cc(-c3cc(Cl)c4c(N)ncnn34)ccc2C)C(=O)C1(C)C

Cmax [11]: 5.9 µM
Cmax [12]: 14 µM
remaining at 10 min, 0.5 µM [1]: 94%
remaining at 10 min, 0.5 µM [2]: 91%
remaining at 10 min, 0.5 µM [3]: 81%
half-life at 0.5 µM [4]: > 2 h
half-life at 0.5 µM [5]: 1.12 h
half-life at 0.5 µM [6]: 1.2 h
Cmax [9]: 8.2 µM
AUC(0-t) at 24 h [10]: 17 µM·h
Cmax [13]: 6.3 µM
AUC [14]: 12 µM·h
clearance [15]: 4.6 mL/min/kg
AUC [16]: 54 µM·h
clearance [17]: 17 mL/min/kg
clearance [18]: 2.3 mL/min/kg
Vd [19]: 2.7 L/kg
Vd [20]: 0.5 L/kg
Vd [21]: 0.61 L/kg
Vd [22]: 3.6 L/kg
half-life [23]: 4.9 h
half-life [24]: 3.5 h
half-life [25]: 29 h
half-life [26]: 10 h
bioavailability [27]: 94%
bioavailability [28]: 71%
F (Canis familiaris): 75%
concentration (Plasma [29]): 10 µM
concentration (Plasma [30]): 27 µM
concentration (Plasma [31]): 54 µM
Cp(f) (Plasma [32]): 0.9 µM
Cp(f) (Plasma [33]): 2.4 µM
Cp(f) (Plasma [34]): 4.8 µM
SMILES: CC(=O)N1CCN(c2cc(-c3cc(C(F)(F)F)c4c(N)ncnn34)ccc2C#N)C(=O)C1(C)C
Time (Oryctolagus cuniculus [35]): 2.2 ms
Time (Oryctolagus cuniculus [36]): 13 ms
Time (Oryctolagus cuniculus [37]): 25 ms

More lines, now with the values behind:

SMILES: CC(=O)N1CCN(c2cc(-c3cc(Cl)c4c(N)ncnn34)ccc2C(F)(F)F)C(=O)C1(C)C
remaining at 10 min, 0.5 µM [1]: 95%
remaining at 10 min, 0.5 µM [2]: 87%
remaining at 10 min, 0.5 µM [3]: 88%

SMILES: CC(=O)N1CCN(c2cccc(-c3cc(Cl)c4c(N)ncnn34)c2)C(=O)C1(C)C
remaining at 10 min, 0.5 µM [1]: 100%
remaining at 10 min, 0.5 µM [2]: 57%
remaining at 10 min, 0.5 µM [3]: 17%
half-life at 0.5 µM [4]: > 2 h
half-life at 0.5 µM [5]: 0.267 h
half-life at 0.5 µM [6]: 0.0667 h
AUC(0-t) at 24 h [7]: 2.9 µM·h
AUC(0-t) at 24 h [8]: 17 µM·h

SMILES: CC(=O)N1CCN(c2cccc(-c3cc(-c4cnn(C5CC5)c4)c4c(N)ncnn34)c2)C(=O)C1(C)C
Cmax [9]: 0.47 µM
AUC(0-t) at 24 h [10]: 1.1 µM·h

SMILES: CC(=O)N1CCN(c2cc(-c3cc(Cl)c4c(N)ncnn34)ccc2S(C)(=O)=O)C(=O)C1(C)C
remaining at 10 min, 0.5 µM [1]: 100%
remaining at 10 min, 0.5 µM [2]: 100%
remaining at 10 min, 0.5 µM [3]: 84%

SMILES: CC(=O)N1CCN(c2cc(-c3cc(Cl)c4c(N)ncnn34)ccc2C(C)O)C(=O)C1(C)C (racemic)
remaining at 10 min, 0.5 µM [1]: 100%
remaining at 10 min, 0.5 µM [2]: 100%
remaining at 10 min, 0.5 µM [3]: 100%

SMILES: CC(=O)N1CCN(c2cccc(-c3cc(C(F)(F)F)c4c(N)ncnn34)c2)C(=O)C1(C)C
remaining at 10 min, 0.5 µM [1]: 83%
remaining at 10 min, 0.5 µM [2]: 52%
remaining at 10 min, 0.5 µM [3]: 30%
half-life at 0.5 µM [4]: 0.683 h
half-life at 0.5 µM [5]: 0.233 h
half-life at 0.5 µM [6]: 0.15 h
